Laboratory results: the supplement of paper PMC10307832

Assays:
Test in all cases: relative viability (nuclei count vs DMSO), 5 days (fraction); higher = more cells survive
[1] = compound: C1/C(=C\C2=CC=CS2)/C(=O)/C(=C/C3=CC=CS3)/C1 + CC(=O)Nc1cccc(-n2c(=O)n(C3CC3)c(=O)c3c(Nc4ccc(I)cc4F)n(C)c(=O)c(C)c32)c1 [Trametinib] (partner 0.02 µM)
Outline: (§1)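 Lung cancer cell lines were seeded in 1536-well plates and dosed by pin tool the next day, with either a single drug or a fixed anchor-drug dose combined with five library-drug doses (not always all listed) spaced in √10 steps. Five days later, one step fixed the cells and stained their nuclei (final 0.05% Triton X-100, 1% formaldehyde, 1 ug/ml Hoechst), and nuclei were counted on 4× images. Relative viability is the nuclei count in treated wells divided by the count in vehicle wells, and each value is the median of duplicate plates.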

[2] = compound: C[C@]12O[C@H](C[C@]1(O)CO)n1c3ccccc3c3c4c(c5c6ccccc6n2c5c31)CNC4=O [Lestaurtinib] + CC1(C)CCC(c2ccc(Cl)cc2)=C(CN2CCN(c3ccc(C(=O)NS(=O)(=O)c4ccc(N[C@H](CCN5CCOCC5)CSc5ccccc5)c(S(=O)(=O)C(F)(F)F)c4)cc3)CC2)C1 [Navitoclax] (partner 0.5 µM)
Outline: as §1

Lestaurtinib + Olaparib = compound: C[C@]12O[C@H](C[C@]1(O)CO)n1c3ccccc3c3c4c(c5c6ccccc6n2c5c31)CNC4=O [Lestaurtinib] + O=C(c1cc(Cc2n[nH]c(=O)c3ccccc23)ccc1F)N1CCN(C(=O)C2CC2)CC1 [Olaparib] (partner 8 µM)
Outline: as §1

[3] = compound: C[C@]12O[C@H](C[C@]1(O)CO)n1c3ccccc3c3c4c(c5c6ccccc6n2c5c31)CNC4=O [Lestaurtinib] + N=C(N)NC(=N)NCCc1ccccc1 [Phenformin] (partner 250 µM)
Outline: as §1

Row | Cell Line | relative viability ([1]; first compound 0.2 µM) | relative viability ([1]; first compound 0.6325 µM) | relative viability ([1]; first compound 2 µM) | relative viability ([1]; first compound 6.325 µM) | relative viability ([1]; first compound 20 µM) | relative viability ([2]; first compound 0.005 µM) | relative viability ([2]; first compound 0.01581 µM) | relative viability ([2]; first compound 0.05 µM) | relative viability ([2]; first compound 0.1581 µM) | relative viability ([2]; first compound 0.5 µM) | relative viability (Lestaurtinib + Olaparib; first compound 0.005 µM) | relative viability (Lestaurtinib + Olaparib; first compound 0.01581 µM) | relative viability (Lestaurtinib + Olaparib; first compound 0.05 µM) | relative viability (Lestaurtinib + Olaparib; first compound 0.1581 µM) | relative viability (Lestaurtinib + Olaparib; first compound 0.5 µM) | relative viability ([3]; first compound 0.005 µM) | relative viability ([3]; first compound 0.01581 µM) | relative viability ([3]; first compound 0.05 µM) | relative viability ([3]; first compound 0.1581 µM) | relative viability ([3]; first compound 0.5 µM)
1 | 201T | 0.708 | 0.704 | 0.736 | 0.708 | 0.706 | 1.21 | 1.22 | 1.29 | 1.28 | 1.18 | 0.89 | 0.712 | 0.882 | 0.937 | 0.552 | 0.467 | 0.491 | 0.363 | 0.418 | 0.278
2 | A549 |  |  |  |  |  | 1.28 | 1.27 | 0.948 | 0.615 | 0.0764 | 0.299 | 0.238 | 0.271 | 0.282 | 0.158 | 0.204 | 0.141 | 0.16 | 0.1 | 0.045
3 | A-427 | 0.838 | 0.738 | 0.887 | 0.739 | 0.815 | 1.04 | 0.858 | 0.914 | 0.455 | 0.329 | 0.802 | 0.745 | 0.712 | 0.485 | 0.315 | 0.339 | 0.3 | 0.23 | 0.225 | 0.149
4 | ABC-1 |  |  |  |  |  |  |  |  |  |  | 0.735 | 0.785 | 0.902 | 1.13 | 0.937 | 0.251 | 0.252 | 0.243 | 0.199 | 0.166
5 | BEN | 1.01 | 1.11 | 1.04 | 1.05 | 0.977 | 0.0676 | 0.07 | 0.0559 | 0.0652 | 0.0525 | 1.24 | 1.07 | 1.1 | 0.853 | 0.521 | 0.292 | 0.316 | 0.267 | 0.237 | 0.196
6 | CAL-12T | 0.376 | 0.365 | 0.316 | 0.261 | 0.307 | 1.25 | 1.45 | 1.08 | 1.2 | 0.686 | 0.837 | 0.767 | 0.877 | 0.802 | 0.344 | 0.488 | 0.622 | 0.375 | 0.32 | 0.189
7 | COR-L23 | 0.553 | 0.575 | 0.674 | 0.508 | 0.633 | 1.14 | 1.12 |  | 0.62 | 0.184 | 0.374 | 0.428 | 0.37 | 0.339 | 0.156 | 0.527 | 0.551 | 0.256 | 0.327 | 0.14
8 | COR-L 105 | 0.421 | 0.463 | 0.447 | 0.402 | 0.451 | 0.803 | 0.746 | 0.595 | 0.643 | 0.322 | 0.64 | 0.685 | 0.792 | 0.579 | 0.498 | 0.465 | 0.476 | 0.371 | 0.353 | 0.238
9 | Calu-6 |  |  |  |  |  | 1.01 | 0.797 | 0.506 | 0.468 | 0.106 | 0.572 |  | 0.457 | 0.388 | 0.252 |  |  |  |  | 
10 | ChaGo-K-1 | 0.9 | 0.949 | 0.838 | 0.675 | 0.478 | 1.03 | 1.59 | 0.962 | 0.603 | 0.497 | 0.424 | 0.464 | 0.427 | 0.387 | 0.279 | 0.484 | 0.447 | 0.448 | 0.333 | 0.275
11 | EBC-1 |  |  |  |  |  | 0.381 | 0.51 | 0.343 | 0.328 | 0.193 | 0.711 | 0.794 | 0.695 | 0.639 | 0.45 |  |  |  |  | 
12 | EKVX | 0.415 | 0.307 | 0.368 |  | 0.295 | 1.03 | 0.889 | 0.965 | 0.929 | 0.45 | 0.941 |  | 0.947 | 1.07 | 0.641 | 0.207 | 0.245 | 0.231 | 0.244 | 0.239
13 | EMC-BAC-2 | 1 | 0.854 | 0.939 | 0.864 | 0.952 | 1.25 | 1.22 | 0.891 | 0.656 | 0.346 | 0.531 | 0.466 | 0.493 | 0.356 | 0.29 | 0.476 | 0.567 | 0.424 | 0.364 | 0.26
14 | EPLC-272H | 0.333 | 0.263 | 0.3 | 0.243 | 0.267 | 1.29 | 0.924 | 0.6 | 0.643 | 0.689 | 0.58 | 0.53 | 0.503 | 0.359 | 0.108 | 0.273 | 0.306 | 0.281 | 0.225 | 0.125
15 | H3255 | 0.644 | 0.583 | 0.596 | 0.446 | 0.666 | 0.44 | 0.437 | 0.327 | 0.279 | 0.182 | 0.563 | 0.535 | 0.54 | 0.525 | 0.397 | 0.313 | 0.315 | 0.379 | 0.286 | 0.294
16 | HARA | 0.622 | 0.78 | 0.663 | 0.937 | 0.829 | 1.15 | 1.18 | 1.21 | 1.07 | 0.196 | 1.03 | 0.899 | 0.441 | 0.886 | 0.237 | 0.507 | 0.477 | 0.369 | 0.358 | 0.251
17 | HCC-15 | 0.397 | 0.376 | 0.417 | 0.376 | 0.374 | 0.786 | 0.883 | 0.668 | 0.653 | 0.467 | 0.863 | 0.756 | 0.782 | 0.777 | 0.167 | 0.538 | 0.55 | 0.334 | 0.305 | 0.132
18 | HCC-44 | 1.1 | 1.07 | 1.09 | 0.925 | 0.911 | 0.88 | 1.06 | 0.925 | 1.12 | 0.62 | 0.994 | 0.984 | 0.96 | 1.16 | 0.675 | 0.194 | 0.193 | 0.173 | 0.283 | 0.185
